Measured values as given in the supplement of paper PMC11451515.

System: P12-Ichikawa
Assay: cell viability relative to DMSO control; higher = less cytotoxic
Details: 48 h
How it was run: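 NOMO1 or SEM cells were plated at 500 cells/well and P12-Ichikawa cells at 1000 cells/well in 1536-well plates (5 μl), after each leukemia line had been adapted for at least four passages in each medium. Pin dosing delivered library compounds in DMSO at 11 threefold concentrations, 47 μM to 0.79 nM. CellTiter-Glo One luminescence was read after 48 h at 37°C. Viability is reported as a per-plate percentage of DMSO wells, with cell-free wells as background.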

[1] = HPLM + 10% dialyzed FBS, 0.000781 µM
[2] = HPLM + 10% dialyzed FBS, 0.00234 µM
[3] = HPLM + 10% dialyzed FBS, 0.00702 µM
[4] = HPLM + 10% dialyzed FBS, 0.0211 µM
[5] = HPLM + 10% dialyzed FBS, 0.0632 µM
[6] = HPLM + 10% dialyzed FBS, 0.19 µM
[7] = HPLM + 10% dialyzed FBS, 0.569 µM
[8] = HPLM + 10% dialyzed FBS, 1.71 µM
[9] = HPLM + 10% dialyzed FBS, 5.12 µM
[10] = HPLM + 10% dialyzed FBS, 15.4 µM
[11] = HPLM + 10% dialyzed FBS, 46.1 µM
[12] = RPMI 5 mM glucose + 10% FBS, 0.000781 µM
[13] = RPMI 5 mM glucose + 10% FBS, 0.00234 µM
[14] = RPMI 5 mM glucose + 10% FBS, 0.00702 µM
[15] = RPMI 5 mM glucose + 10% FBS, 0.0211 µM
[16] = RPMI 5 mM glucose + 10% FBS, 0.0632 µM
[17] = RPMI 5 mM glucose + 10% FBS, 0.19 µM
[18] = RPMI 5 mM glucose + 10% FBS, 0.569 µM
[19] = RPMI 5 mM glucose + 10% FBS, 1.71 µM
[20] = RPMI 5 mM glucose + 10% FBS, 5.12 µM
[21] = RPMI 5 mM glucose + 10% FBS, 15.4 µM
[22] = RPMI 5 mM glucose + 10% FBS, 46.1 µM
[23] = RPMI 5 mM glucose + 10% dialyzed FBS, 0.000781 µM
[24] = RPMI 5 mM glucose + 10% dialyzed FBS, 0.00234 µM
[25] = RPMI 5 mM glucose + 10% dialyzed FBS, 0.00702 µM
[26] = RPMI 5 mM glucose + 10% dialyzed FBS, 0.0211 µM
[27] = RPMI 5 mM glucose + 10% dialyzed FBS, 0.0632 µM
[28] = RPMI 5 mM glucose + 10% dialyzed FBS, 0.19 µM
[29] = RPMI 5 mM glucose + 10% dialyzed FBS, 0.569 µM
[30] = RPMI 5 mM glucose + 10% dialyzed FBS, 1.71 µM
[31] = RPMI 5 mM glucose + 10% dialyzed FBS, 5.12 µM
[32] = RPMI 5 mM glucose + 10% dialyzed FBS, 15.4 µM
[33] = RPMI 5 mM glucose + 10% dialyzed FBS, 46.1 µM

SMILES | cell viability [1] | cell viability [2] | cell viability [3] | cell viability [4] | cell viability [5] | cell viability [6] | cell viability [7] | cell viability [8] | cell viability [9] | cell viability [10] | cell viability [11] | cell viability [12] | cell viability [13] | cell viability [14] | cell viability [15] | cell viability [16] | cell viability [17] | cell viability [18] | cell viability [19] | cell viability [20] | cell viability [21] | cell viability [22] | cell viability [23] | cell viability [24] | cell viability [25] | cell viability [26] | cell viability [27] | cell viability [28] | cell viability [29] | cell viability [30] | cell viability [31] | cell viability [32] | cell viability [33]
S=C(NCc1ccc2c(c1)OCO2)N1CCN(c2ncnc3c2oc2ccccc23)CC1 | 115% | 111% | 114% | 106% | 111% | 102% | 105% | 95.6% | 69.5% | 65.2% | 33.2% | 105% | 106% | 108% | 103% | 111% | 102% | 96.2% | 74.1% | 52.7% | 54% | 29.6% | 114% | 110% | 115% | 106% | 107% | 108% | 99% | 77.8% | 60.4% | 64.6% | 35.3%
CC[C@]12CC[C@H]3[C@@H](CCC/4=C/C(=O)CC[C@H]34)[C@@H]1\C=C/[C@@]2(O)C#C | 109% | 124% | 124% | 125% | 132% | 129% | 128% | 120% | 122% | 123% | 119% | – | – | – | – | – | – | – | – | – | – | – | 106% | 110% | 121% | 115% | 119% | 114% | 124% | 123% | 118% | 113% | 116%
CNCC(O)c1ccc(O)cc1 (stereo not drawn) | 103% | 106% | 113% | 113% | 124% | 122% | 118% | 118% | 120% | 119% | 120% | 99.8% | 116% | 114% | 121% | 124% | 127% | 122% | 129% | 123% | 131% | 107% | 99.4% | 110% | 115% | 119% | 114% | 113% | 118% | 113% | 123% | 121% | 114%
C[S+](=O)([O-])Nc1ccc([N+](=O)[O-])cc1Oc1ccccc1 | 114% | 115% | 111% | 120% | 112% | 115% | 118% | 109% | 109% | 102% | 59.4% | 122% | 121% | 120% | 119% | 120% | 122% | 116% | 111% | 116% | 112% | 28.5% | 110% | 108% | 114% | 113% | 121% | 110% | 117% | 103% | 106% | 103% | 48.7%
N[S+]([O-])(=O)C1=CC=C(NC/2=C/C(=O)C3=CC=CC=C3C2=O)C=C1 | 102% | 115% | 119% | 114% | 129% | 120% | 123% | 118% | 117% | 118% | 115% | 110% | 112% | 108% | 112% | 112% | 124% | 125% | 126% | 111% | 124% | 100% | 107% | 114% | 113% | 120% | 117% | 121% | 128% | 124% | 121% | 131% | 105%
CCOC(=O)N1CCN(/[N+]([O-])=N/Oc2ccc([N+](=O)[O-])cc2C#N)CC1 | 97% | 106% | 108% | 107% | 106% | 115% | 113% | 15.9% | 9.82% | 9.87% | 9.31% | 110% | 115% | 117% | 110% | 118% | 115% | 119% | 12.1% | 9.8% | 8.38% | 7.09% | 103% | 101% | 105% | 111% | 113% | 108% | 108% | 16.4% | 10.6% | 9.71% | 9.91%
COc1ccccc1OCC(O)COC(N)=O (stereo not drawn) | 88.2% | 107% | 103% | 109% | 109% | 107% | 111% | 117% | 111% | 112% | 58.1% | 112% | 118% | 117% | 114% | 120% | 118% | 124% | 106% | 118% | 126% | 125% | 93.1% | 105% | 101% | 107% | 110% | 103% | 110% | 101% | 113% | 117% | 106%
C[C@]12COC(=O)C[C@@H]1CC[C@@H]1[C@@H]2CC[C@@]2(C)[C@H]1CC[C@]2(C)O | 105% | 107% | 117% | 107% | 110% | 102% | 107% | 103% | 102% | 100% | 88.1% | 106% | 109% | 101% | 100% | 107% | 105% | 113% | 98.3% | 101% | 103% | 97.4% | 101% | 98.6% | 97.5% | 104% | 92.3% | 101% | 99.2% | 104% | 94.1% | 98.7% | 95.2%
